Tests used:
Assay type in all cases: in vivo
rice (Oryra sativa) = experiment: Test B flooded paddy test; details: 250 g ai/ha, Flood; 0 to 100 scale where 0 is no effect and 100 is complete control
Procedure: (§1) Plant species in the flooded paddy test selected from rice (Oryra sativa), sedge, umbrella (small-flower umbrella sedge, Cyperus difformis), ducksalad (Heteranthera limosa), and barnyardgrass (Echinochloa crus-galli) were grown to the 2-leaf stage for testing. At time of treatment, test pots were flooded to 3 cm above the soil surface, treated by application of test compounds directly to the paddy water, and then maintained at that water depth for the duration of the test. Treated plants and controls were maintained in a greenhouse for 13 to 15 d, after which time all species were compared to controls and visually evaluated. Plant response ratings, summarized in Table B, are based on a scale of 0 to 100 where 0 is no effect and 100 is complete control. A dash (-) response means no test result.

[1] = tested on: barnyardgrass (Echinochloa crus-galli); experiment: Test B flooded paddy test; details: 250 g ai/ha, Flood; 0 to 100 scale where 0 is no effect and 100 is complete control
Procedure: as §1

[2] = tested on: sedge, umbrella (small-flower umbrella sedge, Cyperus difformis); experiment: Test B flooded paddy test; details: 250 g ai/ha, Flood; 0 to 100 scale where 0 is no effect and 100 is complete control
Procedure: as §1

[3] = tested on: ducksalad (Heteranthera limosa); experiment: Test B flooded paddy test; details: 250 g ai/ha, Flood; 0 to 100 scale where 0 is no effect and 100 is complete control
Procedure: as §1

[4] = tested on: giant foxtail (Setaria faberii); experiment: Test A preemergence
Text: (§2) Seeds of plant species selected from barnyardgrass (Echinochloa crus-galli), Kochia (Kochia scoparia), ragweed (common ragweed, Ambrosia elatior), ryegrass, Italian (Italian ryegrass, Lolium multiflorum), crabgrass, large (Digitaria sanguinalis), giant foxtail (Setaria faberii), green foxtail (Setaria viridis), morningglory (Ipomoea spp.), pigweed (Amaranthus retroflexus), velvetleaf (Abutilon theophrasti), wheat (Triticum aestivum), and corn (Zea mays) were planted into a blend of loam soil and sand and treated preemergence with a directed soil spray using test chemicals formulated in anon-phytotoxic solvent mixture which included a surfactant.
(§3) At the same time, plants selected from these crop and weed species and also blackgrass (Alopecurus myosuroides), and Galium (catchweed bedstraw, Galium aparine) were planted in pots containing the same blend of loam soil and sand and treated with postemergence applications of test chemicals formulated in the same manner. Plants ranged in height from 2 to 10 cm and were in the one- to two-leaf stage for the postemergence treatment. Treated plants and untreated controls were maintained in a greenhouse for approximately 10 d, after which time all treated plants were compared to untreated controls and visually evaluated for injury. Plant response ratings, summarized in Table A, are based on a 0 to 100 scale where 0 is no effect and 100 is complete control. A dash (-) response means no test result.

[5] = tested on: ragweed (common ragweed, Ambrosia elatior); experiment: Test A preemergence
Text: as §2, §3

[6] = tested on: pigweed (Amaranthus retroflexus); experiment: Test A preemergence
Text: as §2, §3

[7] = tested on: barnyardgrass (Echinochloa crus-galli); experiment: Test A preemergence
Text: as §2, §3

[8] = tested on: ryegrass, Italian (Italian ryegrass, Lolium multiflorum); experiment: Test A preemergence
Text: as §2, §3

Kochia (Kochia scoparia) [9] = experiment: Test A preemergence
Text: as §2, §3

[10] = tested on: giant foxtail (Setaria faberii); experiment: Test A postemergence
Text: as §2, §3

[11] = tested on: ragweed (common ragweed, Ambrosia elatior); experiment: Test A postemergence
Text: as §2, §3

[12] = tested on: pigweed (Amaranthus retroflexus); experiment: Test A postemergence
Text: as §2, §3

[13] = tested on: Galium (catchweed bedstraw, Galium aparine); experiment: Test A postemergence
Text: as §2, §3

[14] = tested on: wheat (Triticum aestivum); experiment: Test A postemergence
Text: as §2, §3

corn (Zea mays) = experiment: Test A postemergence
Text: as §2, §3

[15] = tested on: barnyardgrass (Echinochloa crus-galli); experiment: Test A postemergence
Text: as §2, §3

[16] = tested on: ryegrass, Italian (Italian ryegrass, Lolium multiflorum); experiment: Test A postemergence
Text: as §2, §3

Kochia (Kochia scoparia) [17] = experiment: Test A postemergence
Text: as §2, §3

[18] = tested on: blackgrass (Alopecurus myosuroides); experiment: Test A postemergence
Text: as §2, §3

[19] = 125 g ai/ha, Preemergence, visual injury rating after approximately 10 d
[20] = 500 g ai/ha, preemergence, visual injury rating about 10 d after treatment, 0 to 100 scale (0 no effect, 100 complete control)
[21] = 125 g ai/ha, Postemergence, visual injury after approximately 10 d, 0 to 100 scale where 0 is no effect and 100 is complete control
[22] = 500 g ai/ha, postemergence, visual injury, 0 to 100 scale (0 no effect, 100 complete control), approx. 10 d

For `Cc1ccc([C@H]2CN(C)C(=O)[C@@H]2C(=O)Nc2ccccc2[S+](C)[O-])cc1Cl` (stereo partly drawn) [Compound 1017], the “Rice plant response rating” value (rice (Oryra sativa)) was 30, the “Barnyardgrass plant response rating” value [1] was 70 and the “Sedge, Umbrella plant response rating” value [2] was 0. For the same compound, the “Ducksalad plant response rating” value [3] was 90, the “Foxtail, Giant plant response rating (0 to 100 scale, 0 is no effect, 100 is complete control)” value [4, 19] was 90 and the “Foxtail, Giant plant response rating” value [4, 20] was 90. The “Ragweed plant response rating (0 to 100 scale, 0 is no effect, 100 is complete control)” value [5, 19] was 0, the “Ragweed plant response rating” value [5, 20] was 90 and the “Pigweed plant response rating (0 to 100 scale, 0 is no effect, 100 is complete control)” value [6, 19] was 50. The “Pigweed plant response rating” value [6, 20] was 60, the “Barnyardgrass plant response rating (0 to 100 scale, 0 is no effect, 100 is complete control)” value [7, 19] was 90 and the “Barnyardgrass plant response rating” value [7, 20] was 90. The “Ryegrass, Italian plant response rating (0 to 100 scale, 0 is no effect, 100 is complete control)” value [8, 19] was 0, the “Ryegrass, Italian plant response rating” value [8, 20] was 70 and the “Kochia plant response rating (0 to 100 scale, 0 is no effect, 100 is complete control)” value (Kochia (Kochia scoparia) [9]; [19]) was 0. The “Kochia plant response rating” value (Kochia (Kochia scoparia) [9]; [20]) was 70, the “Plant response rating, Foxtail, Giant” value [10, 21] was 90 and the “Plant response rating, Foxtail, Giant” value [10, 22] was 90. For the same compound, the “Plant response rating, Ragweed” value [11, 21] was 0, the “Plant response rating, Ragweed” value [11, 22] was 40 and the “Plant response rating, Pigweed” value [12, 21] was 0. The “Plant response rating, Pigweed” value [12, 22] was 40, the “Plant response rating, Galium” value [13, 21] was 40 and the “Plant response rating, Galium” value [13, 22] was 70. For the same compound, the “Plant response rating, Wheat” value [14, 21] was 20, the “Plant response rating, Wheat” value [14, 22] was 60 and the “Plant response rating, Corn” value (corn (Zea mays); [21]) was 80. The “Plant response rating, Corn” value (corn (Zea mays); [22]) was 90, the “Plant response rating, Barnyardgrass” value [15, 21] was 90 and the “Plant response rating, Barnyardgrass” value [15, 22] was 90. The “Plant response rating, Ryegrass, Italian” value [16, 21] was 30, the “Plant response rating, Ryegrass, Italian” value [16, 22] was 50 and the “Plant response rating, Kochia” value (Kochia (Kochia scoparia) [17]; [21]) was 40. For the same compound, the “Plant response rating, Kochia” value (Kochia (Kochia scoparia) [17]; [22]) was 60, the “Plant response rating, Blackgrass” value [18, 21] was 0 and the “Plant response rating, Blackgrass” value [18, 22] was 40.
